Counter-ions that a name gives are not always drawn. Like-named read-outs stand apart in the source and are kept apart here.
Assays:
[1] = test system: isolated ileum of the guinea pig; assay: Spasmolytic activity in vitro, barium chloride contraction of isolated ileum; assay type: cell-based; settings: Cavia porcellus, Tyrode liquid, 37° C., barium chloride as contracting agent, product added 30 seconds before, read-out: EC50 (concentration required to cause inhibition of contraction in 50% of the population)
Description: The tests are carried out on isolated ileum of the guinea pig surviving in Tyrode liquid, aerated and maintained at 37° C. The products are added 30 seconds before affusion of barium chloride used as contracting agent. The concentrations required to cause inhibition of contraction in 50% of the population (EC50) was given in table II compared with papaverine.

[2] = Acute toxicity, LD50 in mice (method of Litchfield and Wilcoxon), intravenous route; settings: in vivo
Description: LD50 values in mice for several compounds of the invention were obtained by the method of Litchfield and Wilcoxon (J. Pharmacol. (1949), 96.99) after the administration of the test compound by intravenous route (i.v.) in the mouse (CD, males 18-24 g) in a volume of 0.40 ml/20 g of body weight. The mortality is noted 7 days after administration.

[3] = test system: dogs anaesthetized with chloralose; assay: Cardiovascular activity in anaesthetized dogs; assay type: in vivo, dog; settings: i.v., 1/15 to 1/30 of the mouse i.v. LD50
Description: The following parameters were recorded in dogs anaesthetized with chloralose, and under artificial respiration:
left ventricular contractile force.
The compounds tested were injected intravenously in a dose of from (1/15) to (1/30) of the LD50 (i.v.) previoulsy determined in mice.

[4] = mouse CD males, i.v., 0.40 ml/20 g, mortality noted 7 days after administration, limits p = 0.05 in brackets
[5] = mouse, read-out: LD50 and limits (p = 0.05)

Structure (SMILES) | EC50 [1] | LD50 at 168 h [2, 4] | effect on blood pressure (mean aortic pressure) [3] | effect on left ventricular contractile force [3] | LD50 at 168 h [2, 5] | effect on cardiac frequency [3]
COc1ccc(Cc2nccc3cc(OC)c(OC)cc23)cc1OC [Papauerine HCl, reference compound] | 980 µM | – | – | – | – | –
CCCOc1ccc(CC2=NCCc3cc(OCC)c(OCC)cc32)cc1OCCC.Cl [Example 3, 6,7-Diethoxy-1-(3',4'-di-n-propoxybenzyl)-3,4-dihydroisoquinoline hydrochloride] | 3.2 µM | 17.5 mg/kg | transient hypotension | reduction in the amplitude of ventricular contraction | – | –
CCOc1cc2c(cc1OCC)C(Cc1ccc(OC(C)C)c(OC(C)C)c1)NCC2 (centres unmarked) [Example 11, 6,7-Diethoxy-1-(3',4'-diisopropoxybenzyl)-1,2,3,4-tetrahydroisoquinoline hydrochloride] | 60 µM | 22 mg/kg | – | – | – | –
CCOc1cc2c(cc1OCC)C(Cc1ccc(OC(C)C)c(OC(C)C)c1)=NCC2 [Example 1, 6,7-Diethoxy-1-(3'4'-diisopropoxybenzyl-3,4-dihydroisoquinoline hydrochloride] | 11 µM | – | transient hypotension | reduction in the amplitude of ventricular contraction | 19 mg/kg | –
COc1ccc(Cc2nccc3cc(OC)c(OC)cc23)cc1OC [papaverine, 1-(3',4'-dimethoxybenzyl)-6,7-dimethoxy isoquinoline, reference compound] | – | – | transient hypotension | increase of the ventricular contractile force | – | tachycardia
CCCOc1cc2c(cc1OCCC)C(Cc1ccc(OCC)c(OCC)c1)=NCC2.Cl [Example 4, 1-(3',4'-Diethoxybenzyl)-6,7-di-n-propoxy-3,4-dihydroisoquinoline hydrochloride] | 3.7 µM | 13.5 mg/kg | transient hypotension | reduction in the amplitude of ventricular contraction | – | –
CCOc1ccc(CC2NCCc3cc(OC(C)C)c(OC(C)C)cc32)cc1OCC.Cl (centres unmarked) [Example 10, 1-(3',4'-Diethoxybenzyl)-6,7-diisopropoxy-1,2,3,4-tetrahydroisoquinoline hydrochloride] | 10 µM | 19 mg/kg | transient hypotension | reduction in the amplitude of ventricular contraction | – | –
CCOc1ccc(CC2=NCCc3cc(OC(C)C)c(OC(C)C)cc32)cc1OCC [Example 2, 1-(3'4'-Diethoxybenzyl)-6,7-diisopropoxy-3,4-dihydroisoquinoline hydrochloride] | 4.2 µM | – | transient hypotension | reduction in the amplitude of ventricular contraction | 8.2 mg/kg | –

Reference: US4442108A, “Hydrogenated isoquinolines and peripheral vascular disease treating compositions thereof” (Laboratoires Sobio S.A. of Immeuble Perisud, priority 1981, dated 1984)
